The structures appear in SMILES notation.

For 6 compounds, pest or weed control and Efficacy in % results are on record in patent US20070196406A1, “1,3-Dimethylbutyl carboxanilides for controlling undesirable micro-organisms” (priority 2003, published 2007).

Experiment [1] concerns Botrytis cinerea. Kind of experiment: Botrytis test (bean)/protective. It counts as in vivo. Conditions: 48 h, bean plants, protective spray, 500 g/ha, evaluation two days after inoculation, read-out: Efficacy in %. The protocol:
Botrytis Test (Bean)/Protective
• Solvents: 24.5 parts by weight of acetone • 24.5 parts by weight of dimethylacetamide • Emulsifier: 1 part by weight of alkylaryl polyglycol ether
(§1) To produce a suitable preparation of active compound, 1 part by weight of active compound is mixed with the stated amounts of solvent and emulsifier, and the concentrate is diluted with water to the desired concentration.
To test for protective activity, young plants are sprayed with the preparation of active compound at the stated application rate. After the spray coating has dried on, 2 small pieces of agar colonized by Botrytis cinerea are placed under each leaf. The inoculated plants are placed in a dark chamber at about 20° C. and 100% relative atmospheric humidity.
Two days after the inoculation, the size of the infected areas on the leaves is evaluated. 0% means an efficacy which corresponds to that of the control, whereas an efficacy of 100% means that no infection is observed.

The test system of experiment [2] is Sphaerotheca fuliginea. Kind of experiment: Sphaerotheca test (cucumber)/protective. Type of experiment: in vivo. Conditions: cucumber plants, protective spray, 750 g/ha, evaluation 7 days after inoculation. The method, then:
Sphaerotheca Test (Cucumber)/Protective
Solvent: 49 parts by weight of N,N-dimethylformamide
Emulsifier: 1 part by weight of alkylaryl polyglycol ether
as §1
To test for protective activity, young cucumber plants are sprayed with the preparation of active compound at the stated application rate. One day after the treatment, the plants are inoculated with a spore suspension of Sphaerotheca fuliginea. The plants are then placed in a greenhouse at 70% relative atmospheric humidity and a temperature of 23° C.
Evaluation is carried out 7 days after the inoculation. 0% means an efficacy which corresponds to that of the control, whereas an efficacy of 100% means that no infection is observed.

Take `Cc1ccsc1C(=O)Nc1ccc(F)cc1C(C)CC(C)C` (stereo not drawn) [drawing 114]: in experiment [1], the pest or weed control at 500 g/ha was 98%.
In the case of `Cc1nc(C(F)F)c(C(=O)Nc2ccc(F)cc2C(C)CC(C)C)s1` (stereo not drawn) [drawing 115], in experiment [1], the pest or weed control at 500 g/ha came out at 100%.
Turning to `CC1=C(C(=O)Nc2ccc(F)cc2C(C)CC(C)C)SCCO1` (stereo not drawn) [drawing 116], the pest or weed control at 500 g/ha in experiment [1] came to 100%.
In the case of `CC(C)CC(C)c1ccccc1NC(=O)c1cn(C)nc1Cl` (stereo not drawn) [drawing 131], the Efficacy in % in experiment [2] was determined as 100%.
Still for that read-out and setting: in the case of `CC(C)CC(C)c1cc(F)ccc1NC(=O)c1cn(C)nc1C(F)(F)F` (stereo not drawn) [drawing 132] it was 100%; in that of `Cc1sccc1C(=O)Nc1ccc(F)cc1C(C)CC(C)C` (stereo not drawn) [drawing 133], 100%.
